Reference: patent US9074009B2, “Stabilized MAML peptides and uses thereof” (Dana-Farber Cancer Institute, Inc., priority 2006, dated 2015)
Bridge positions count the residues as written; N and C are the ends. Square brackets hold non-standard residues; d marks the D form. Peptide text beside a SMILES is read from it. * marks the point of attachment. Biotin = O=C1N[C@H]2[C@H](CS[C@H]2CCCCC(=O)*)N1; S5 = C=CCCC[C@](C)(N)C(=O)O; βAla = NCCC(=O)O

Columns and labels:
[1] = system: neoplastic murine lymphocytes derived from transgenic mice harboring human Notch mutations
[2] = system: Notch complex mediated transcription; test: Beta-lactamase gene under CSL responsive promoter in T-ALL cells (MOLT4); type: cell-based; details: decrease similar to RNAi against Notch or lactamase, FIG. 22
From the text: T-ALL cells (MOLT4) harboring a beta-lactamase gene under the control of a CSL responsive promoter was used to study the effect of SAHN1 and SAHN11 on Notch complex mediated transcription.

ICN and CSL = target: T1, ICN and CSL (Homo sapiens, UniProt P46531+Q06330); test: Immunoprecipitation from T-ALL (KOPTK1) cell lysates; type: binding; details: FIG. 19
T1 construct: endogenous in cells; host or cells: KOPTK1 (T-ALL) cell lysates

KOPTK1 cells = type: cell-based
From the text: The results of this analysis are show in FIG. 25.

ALL-SIL cells = test: Viability of ALL-SIL cells; type: cell-based; details: FIG. 15
HEY1 = HEY1 expression in T-ALL cells (MOLT4); type: cell-based; details: FIG. 23
From the text: (§1) The results of this analysis are show in FIG. 23.

[3] = Circular dichroism spectra, alpha helicity; type: physicochemical; details: cross-linked vs not cross-linked, FIG. 5
From the text: FIG. 4 is a schematic drawing and detailed structural depiction of a modified polypeptide having the sequence of REM-G1 (SAHN1).

HES1 = HES1 expression in T-ALL cells (MOLT4); type: cell-based; details: FIG. 23
From the text: as §1

Cells = type: cell-based
Protocol: Automated quantitative immunofluorescence was used to determine the intracellular distribution of fluorophore-labeled stapled alpha helices. Cells were incubated with FITC-conjugated peptides SAHN1, SAHN2, or SAHN6; or control. At 16 hours measurements of cellular fluorescence were taken using epifluorescence microscopy. The results of these studies are shown in FIG. 10 in which each circle represents an individual cell and each column represents a treatment condition.
Automated quantitative immunofluorescence was also used to determine the intracellular distribution of fluorophore-labeled stapled alpha helices. Cells were incubated with FITC-conjugated peptides SAHN1, or unstapled SAHN1.

[4] = system: gamma secretase resistant T-ALL cells (MOLT4); test: Apoptotic response in gamma secretase resistant T-ALL cells (MOLT4); type: cell-based; details: MOLT4, after 24 or 48 hours, FIG. 24
From the text: The results of this analysis are show in FIG. 24.

[5] = target: T2, ICN1 bound to immunoprecipitated MAML (Homo sapiens, UniProt P46531+Q06330); test: Competition for ICN1 bound to immunoprecipitated MAML in T-ALL cellular lysates; type: binding; details: FIG. 20 and 21
T2 construct: endogenous in cells

CSL-responsive reporter = CSL-responsive reporter in transfected MOLT4 cells; type: cell-based; details: FIG. 12
From the text: MOLT4 cells transfected with a CSL-responsive reporter were used to test whether stapled SAHN11 can interfere with Notch-mediated activation of transcription.

TALL1 cells = test: Viability of TALL1 cells; type: cell-based; details: FIG. 18
MOLT4 cells = test: Viability of MOLT4 cells; type: cell-based; details: FIG. 14 and 17

T1 sequence (P46531 1754-2555 limits assumed): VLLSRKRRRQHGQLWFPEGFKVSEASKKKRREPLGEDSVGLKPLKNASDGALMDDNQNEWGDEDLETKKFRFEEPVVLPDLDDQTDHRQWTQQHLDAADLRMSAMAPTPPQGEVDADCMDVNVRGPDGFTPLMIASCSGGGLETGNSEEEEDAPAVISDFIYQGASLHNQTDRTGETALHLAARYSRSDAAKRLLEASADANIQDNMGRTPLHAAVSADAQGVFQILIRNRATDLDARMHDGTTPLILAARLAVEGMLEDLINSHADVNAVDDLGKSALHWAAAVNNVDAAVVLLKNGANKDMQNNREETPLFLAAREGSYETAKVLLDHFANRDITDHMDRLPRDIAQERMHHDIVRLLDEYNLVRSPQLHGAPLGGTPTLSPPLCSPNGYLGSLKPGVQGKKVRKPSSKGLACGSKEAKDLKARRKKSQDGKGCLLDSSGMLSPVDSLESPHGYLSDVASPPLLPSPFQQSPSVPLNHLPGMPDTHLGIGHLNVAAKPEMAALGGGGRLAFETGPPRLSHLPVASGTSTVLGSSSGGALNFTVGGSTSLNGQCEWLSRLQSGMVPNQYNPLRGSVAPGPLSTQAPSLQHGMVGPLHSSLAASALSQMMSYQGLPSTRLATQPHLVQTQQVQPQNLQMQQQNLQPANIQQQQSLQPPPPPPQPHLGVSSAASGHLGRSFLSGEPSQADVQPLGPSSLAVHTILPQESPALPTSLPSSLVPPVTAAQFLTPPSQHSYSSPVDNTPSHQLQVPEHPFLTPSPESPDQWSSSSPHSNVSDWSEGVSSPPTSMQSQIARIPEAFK
T1 sequence (Q06330 whole entry): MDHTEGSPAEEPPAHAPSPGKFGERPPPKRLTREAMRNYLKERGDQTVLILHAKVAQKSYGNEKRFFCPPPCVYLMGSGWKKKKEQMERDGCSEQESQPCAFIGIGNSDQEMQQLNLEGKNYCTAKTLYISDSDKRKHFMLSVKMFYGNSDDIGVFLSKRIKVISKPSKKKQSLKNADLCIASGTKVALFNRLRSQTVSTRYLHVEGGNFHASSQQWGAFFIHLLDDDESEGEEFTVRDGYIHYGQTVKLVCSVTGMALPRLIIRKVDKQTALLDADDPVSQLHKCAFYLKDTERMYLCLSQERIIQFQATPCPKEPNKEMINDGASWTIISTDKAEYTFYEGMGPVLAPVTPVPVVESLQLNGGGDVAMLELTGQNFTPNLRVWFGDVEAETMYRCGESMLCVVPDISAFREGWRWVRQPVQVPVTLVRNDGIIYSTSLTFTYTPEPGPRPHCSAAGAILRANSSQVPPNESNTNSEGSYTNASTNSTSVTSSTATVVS
T2 sequence (P46531 1754-2555 limits assumed): as the sequence (P46531 1754-2555 limits assumed) above
T2 sequence (Q06330 whole entry): as the sequence (Q06330 whole entry) above

Structure (SMILES)	cytotoxicity to neoplastic murine lymphocytes [1]	transcription from CSL responsive promoter (beta-lactamase) [2]	pull down of both ICN and CSL (ICN and CSL)	IC50 (KOPTK1 cells)	viability of KOPTK1 cells (KOPTK1 cells; FIG. 16)	viability of ALL-SIL cells (ALL-SIL cells)	expression of HEY1 (HEY1)	alpha helical content (circular dichroism) [3]	expression of HES1 (HES1)	effect of stapling on intracellular passage (Cells)	intracellular passage (cellular fluorescence) (Cells)	apoptotic response [4]	competing away ICN1 bound to immunoprecipitated MAML [5]	expression of the CSL-responsive reporter (CSL-responsive reporter)	viability of TALL1 cells (TALL1 cells)	viability of MOLT4 cells (MOLT4 cells)
CC[C@H](C)[C@H](NC(=O)[C@H](CCCNC(=N)N)NC(=O)[C@H](CCCNC(=N)N)NC(=O)[C@H](CCCNC(=N)N)NC(=O)[C@H](CC(C)C)NC(=O)[C@H](CCCNC(=N)N)NC(=O)[C@H](CCC(=O)O)NC(=O)CCNC(C)=O)C(=O)N[C@@]1(C)CCCC=CCCC[C@@](C)(C(=O)N[C@@H](Cc2c[nH]cn2)C(=O)N[C@@H](Cc2c[nH]cn2)C(=O)N[C@@H](CO)C(=O)N[C@H](C(N)=O)[C@@H](C)O)NC(=O)[C@H](CCCNC(=N)N)NC(=O)[C@H](CS)NC(=O)[C@H](CC(C)C)NC1=O [SAHN1] (Ac-[βAla]ERLRRRI[S5]LCR[S5]HHST-NH2; staple 9-13)	is cytotoxic to neoplastic murine lymphocytes	decreased transcription	can pull down both ICN and CSL	8 µM	reduced the viability of KOPTK1 cells	reduced the viability of ALL-SIL cells	decrease expression of HES1 and HEY1	96%	decrease expression of HES1	stapling of the peptide did not, in this instance, appear to impact intracellular passage	exhibited significant intracellular passage	induces an apoptotic response	can compete away ICN1	–	–	–
CC[C@H](C)[C@H](NC(=O)[C@H](CCCNC(=N)N)NC(=O)[C@H](CCCNC(=N)N)NC(=O)CCNC(=O)[C@H](CCCCNC(=O)CCCC[C@@H]1SC[C@@H]2NC(=O)N[C@@H]21)NC(C)=O)C(=O)N[C@@H](CCC(=O)O)C(=O)N[C@@H](CC(C)C)C(=O)N[C@@H](CS)C(=O)N[C@@H](CCCNC(=N)N)C(=O)N[C@@H](CCCNC(=N)N)C(=O)N[C@@H](Cc1c[nH]cn1)C(=O)N[C@@H](Cc1c[nH]cn1)C(=O)N[C@@]1(C)CCCC=CCCC[C@@](C)(C(=O)N[C@@H](CCCNC(=N)N)C(=O)N[C@@H](Cc2ccc(O)cc2)C(=O)N[C@@H](CCC(=O)O)C(=O)N[C@@H](C)C(=O)N[C@H](C(N)=O)C(C)C)NC(=O)[C@H](CCC(=O)O)NC(=O)[C@H](CS)NC(=O)[C@H]([C@@H](C)O)NC1=O [SAHN11] (Ac-K(Biotin)[βAla]RRIELCRRHH[S5]TCE[S5]RYEAV-NH2; staple 13-17; N-terminus assumed)	–	decreased transcription	can pull down both ICN and CSL	–	–	–	–	–	–	–	–	–	–	reduced expression of the CSL-responsive reporter in a dose-dependent manner	reduced the viability of TALL1 cells	reduced the viability of MOLT4 cells
